From the supplement of paper PMC8617591

What was measured:
[1] = tested on: Mycobacterium tuberculosis Erdman (autoluminescent); test: Einf, fitted maximum growth inhibition of combination (fraction); higher = stronger maximal inhibition
Method: (§1)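 DiaMOND equipotent two-drug combination dose responses against autoluminescent M. tuberculosis Erdman in 8 in vitro models. Read-out is OD600, or luminescence for the intracellular and dormancy models, normalised to untreated wells. Hill-fit Einf, AUC25 and GRinf are potency metrics; FIC50 and FIC90 are Loewe-additivity fractional inhibitory concentrations, given as log2 (negative = synergy). Replicates are averaged.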

[2] = tested on: Mycobacterium tuberculosis Erdman (autoluminescent); test: FIC50 (Loewe) at 50% inhibition (log2); higher = more antagonistic
Method: as §1

[3] = tested on: Mycobacterium tuberculosis Erdman (autoluminescent); test: FIC90 (Loewe) at 90% inhibition (log2); higher = more antagonistic
Method: as §1

[4] = tested on: Mycobacterium tuberculosis Erdman (autoluminescent); test: GRinf, maximum normalised growth rate inhibition (unitless (-1 to 1)); higher = less effect (negative = killing)
Method: as §1

[5] = tested on: Mycobacterium tuberculosis Erdman (autoluminescent); test: AUC25, normalised area under dose response up to IC25 (fraction (0-1)); higher = more potent at low dose
Method: as §1

NNC(=O)c1ccncc1 [isoniazid] + CO[C@H]1/C=C/O[C@@]2(C)Oc3c(C)c(O)c4c(O)c(c(/C=N/N5CCN(C)CC5)c(O)c4c3C2=O)NC(=O)/C(C)=C\C=C\[C@H](C)[C@H](O)[C@@H](C)[C@@H](O)[C@@H](C)[C@H](OC(C)=O)[C@@H]1C [rifampicin]
Conditions	AUC25, [5]	Einf, [1]	FIC50, [2]	FIC90, [3]	GRinf, [4]
in vitro model: acidic pH 5.7, time point: constant (~7 days, model-specific)	0.0799	0.91	0.156	–	-0.381
in vitro model: acidic pH 5.7, time point: terminal (~4-5 doublings, model-specific)	0.0614	0.99	0.263	0.0584	-0.3
in vitro model: intracellular J774, time point: constant = terminal	–	0.966	–	-0.336	-0.212

Conditions	AUC25, [5]	Einf, [1]	FIC50, [2]	FIC90, [3]	GRinf, [4]
in vitro model: butyrate, time point: constant (~7 days, model-specific)	0.1	0.932	0.279	0.359	-0.0416
in vitro model: butyrate, time point: terminal (~4-5 doublings, model-specific)	0.0861	0.973	0.0238	0.0846	-0.0152
in vitro model: cholesterol 0.05 mM, time point: constant (~7 days, model-specific)	0.107	0.655	0.41	–	0.0341
in vitro model: cholesterol 0.05 mM, time point: terminal (~4-5 doublings, model-specific)	0.0769	0.897	0.0977	0.49	-0.0891
in vitro model: cholesterol-high 0.2 mM, time point: constant (~7 days, model-specific)	0.0535	0.91	-0.107	–	-0.249
in vitro model: cholesterol-high 0.2 mM, time point: terminal (~4-5 doublings, model-specific)	0.0593	1	0.355	0.101	-0.696
in vitro model: dormancy (butyrate + nitrate, low O2), time point: constant (~7 days, model-specific)	0.0607	0.931	-0.181	-1.07	0.104
in vitro model: dormancy (butyrate + nitrate, low O2), time point: terminal (~4-5 doublings, model-specific)	0.0631	0.989	-0.539	-0.256	-0.205
in vitro model: standard 7H9 glycerol, time point: constant = terminal	0.0779	0.914	0.445	-0.093	0.103
in vitro model: valerate, time point: constant (~7 days, model-specific)	0.0388	0.866	0.511	–	0.0415
in vitro model: valerate, time point: terminal (~4-5 doublings, model-specific)	0.0262	0.943	0.396	0.119	0.032

NNC(=O)c1ccncc1 [isoniazid] + COc1c(N2C[C@@H]3CCCN[C@@H]3C2)c(F)cc2c(=O)c(C(=O)O)cn(C3CC3)c12 [moxifloxacin]
Conditions	AUC25, [5]	Einf, [1]	FIC50, [2]	FIC90, [3]	GRinf, [4]
in vitro model: acidic pH 5.7, time point: constant (~7 days, model-specific)	0.108	0.704	0.476	–	-0.263
in vitro model: acidic pH 5.7, time point: terminal (~4-5 doublings, model-specific)	0.0673	0.923	0.361	0.444	-0.118
in vitro model: intracellular J774, time point: constant = terminal	–	0.993	–	0.465	-0.405

Conditions	AUC25, [5]	Einf, [1]	FIC50, [2]	FIC90, [3]	GRinf, [4]
in vitro model: butyrate, time point: constant (~7 days, model-specific)	0.0638	0.926	0.0921	0.134	-0.0481
in vitro model: butyrate, time point: terminal (~4-5 doublings, model-specific)	0.0457	0.969	0.0505	-0.0232	-0.0694
in vitro model: cholesterol 0.05 mM, time point: constant (~7 days, model-specific)	0.121	0.756	0.0749	–	-0.309
in vitro model: cholesterol 0.05 mM, time point: terminal (~4-5 doublings, model-specific)	0.096	0.962	0.0269	0.468	-0.301
in vitro model: cholesterol-high 0.2 mM, time point: constant (~7 days, model-specific)	0.079	0.953	0.049	0.277	-0.524
in vitro model: cholesterol-high 0.2 mM, time point: terminal (~4-5 doublings, model-specific)	0.057	0.995	0.314	0.00349	-0.639
in vitro model: dormancy (butyrate + nitrate, low O2), time point: constant (~7 days, model-specific)	0.076	0.91	0.000113	-0.385	0.143
in vitro model: dormancy (butyrate + nitrate, low O2), time point: terminal (~4-5 doublings, model-specific)	0.0785	0.985	0.0985	0.553	-0.158
in vitro model: standard 7H9 glycerol, time point: constant = terminal	0.0762	0.981	0.317	0.332	-0.218
in vitro model: valerate, time point: constant (~7 days, model-specific)	0.0691	0.863	0.215	–	0.0468
in vitro model: valerate, time point: terminal (~4-5 doublings, model-specific)	0.0467	0.94	0.279	0.294	0.0344

NNC(=O)c1ccncc1 [isoniazid] + NC(=O)c1cnccn1 [pyrazinamide]
Conditions	AUC25, [5]	Einf, [1]	FIC50, [2]	FIC90, [3]	GRinf, [4]
in vitro model: acidic pH 5.7, time point: constant (~7 days, model-specific)	0.097	0.857	-0.176	–	-0.422
in vitro model: acidic pH 5.7, time point: terminal (~4-5 doublings, model-specific)	0.0846	0.977	0.19	-0.784	-0.338
in vitro model: intracellular J774, time point: constant = terminal	–	0.964	–	0.267	-0.218

Conditions	AUC25, [5]	Einf, [1]	FIC50, [2]	FIC90, [3]	GRinf, [4]
in vitro model: butyrate, time point: constant (~7 days, model-specific)	0.0844	0.931	-0.141	0.439	0.0223
in vitro model: butyrate, time point: terminal (~4-5 doublings, model-specific)	0.053	0.954	-0.11	-0.0985	0.0459
in vitro model: cholesterol 0.05 mM, time point: constant (~7 days, model-specific)	0.112	0.758	–	–	-0.252
in vitro model: cholesterol 0.05 mM, time point: terminal (~4-5 doublings, model-specific)	0.119	0.951	-0.117	–	-0.372
in vitro model: cholesterol-high 0.2 mM, time point: constant (~7 days, model-specific)	0.0915	0.908	0.321	–	-0.322
in vitro model: cholesterol-high 0.2 mM, time point: terminal (~4-5 doublings, model-specific)	0.0717	0.995	0.538	0.4	-0.664
in vitro model: dormancy (butyrate + nitrate, low O2), time point: constant (~7 days, model-specific)	0.0844	0.897	-0.543	-0.165	0.244
in vitro model: dormancy (butyrate + nitrate, low O2), time point: terminal (~4-5 doublings, model-specific)	0.0579	0.984	-0.16	-0.412	-0.119
in vitro model: standard 7H9 glycerol, time point: constant = terminal	0.0332	0.861	-0.124	–	0.248
in vitro model: valerate, time point: constant (~7 days, model-specific)	0.0637	0.78	-0.102	–	0.208
in vitro model: valerate, time point: terminal (~4-5 doublings, model-specific)	0.0551	0.839	0.196	0.67	0.173

NNC(=O)c1ccncc1 [isoniazid] + O=[N+]([O-])c1cn2c(n1)OC[C@@H](OCc1ccc(OC(F)(F)F)cc1)C2 [pretomanid]
Conditions	AUC25, [5]	Einf, [1]	FIC50, [2]	FIC90, [3]	GRinf, [4]
in vitro model: acidic pH 5.7, time point: constant (~7 days, model-specific)	0.13	0.866	0.312	–	-0.747
in vitro model: acidic pH 5.7, time point: terminal (~4-5 doublings, model-specific)	0.0878	0.99	0.274	0.597	-0.432
in vitro model: intracellular J774, time point: constant = terminal	–	1	–	0.496	-0.631

Conditions	AUC25, [5]	Einf, [1]	FIC50, [2]	FIC90, [3]	GRinf, [4]
in vitro model: butyrate, time point: constant (~7 days, model-specific)	0.0655	0.945	0.776	0.672	-0.0657
in vitro model: butyrate, time point: terminal (~4-5 doublings, model-specific)	0.0383	0.973	0.602	0.403	-0.0769
in vitro model: cholesterol 0.05 mM, time point: constant (~7 days, model-specific)	0.122	0.755	0.145	–	-0.201
in vitro model: cholesterol 0.05 mM, time point: terminal (~4-5 doublings, model-specific)	0.0915	0.922	5.18	0.199	-0.242
in vitro model: cholesterol-high 0.2 mM, time point: constant (~7 days, model-specific)	0.0893	0.875	0.379	–	-0.127
in vitro model: cholesterol-high 0.2 mM, time point: terminal (~4-5 doublings, model-specific)	0.0482	0.982	0.467	0.413	-0.542
in vitro model: dormancy (butyrate + nitrate, low O2), time point: constant (~7 days, model-specific)	0.0671	0.909	0.185	0.145	0.115
in vitro model: dormancy (butyrate + nitrate, low O2), time point: terminal (~4-5 doublings, model-specific)	0.0588	0.983	0.103	0.303	-0.198
in vitro model: standard 7H9 glycerol, time point: constant = terminal	0.0602	0.928	0.303	0.248	0.0614
in vitro model: valerate, time point: constant (~7 days, model-specific)	0.102	0.884	0.537	2.18	-0.208
in vitro model: valerate, time point: terminal (~4-5 doublings, model-specific)	0.0772	0.938	0.495	0.477	0.00535
